From patent US9826740B2, “Synergistic fungicidal compositions and methods of use” (ZELAM LIMITED, priority 2010, dated 2017)
Like-named read-outs stand apart in the source and are kept apart here.

Legend:
[1] = cited from earlier work
[2] = system: Poria placenta (Brown rot); assay: Malt extract agar plate growth inhibition; type: cell-based
Method: (§1) The end points used were EC90 or EC50, the concentration producing 90% or 50% inhibition of growth or weight loss resulting from fungal growth. EC values were calculated by regression analysis of dose response data using the GraphPad Prism software package (GraphPad Software, Inc., 5755 Oberlin Drive #110, San Diego, Calif. 92121, USA). EC90 values are expressed in ppm and EC50 values are expressed in gai/m^3. […]
(§2) Further EC90 values were determined for this example in a standard manner.

[3] = system: Pycnoporus coccineus (White rot); assay: Malt extract agar plate growth inhibition; type: cell-based
Method: as §1, §2

[4] = system: Gloeophyllum abietinum (Brown rot); assay: Malt extract agar plate growth inhibition; type: cell-based; details: Example 5, 7 days growth
Method: as §1, §2

[5] = system: Serpula lacrymans (Dry rot); assay: Malt extract agar plate growth inhibition; type: cell-based
Method: as §1, §2

[6] = system: Tyromyces palustris (Brown rot); assay: Malt extract agar plate growth inhibition; type: cell-based; details: Example 5, 4 days growth
Method: as §1, §2

[7] = cited from earlier work; remark: listed apart in the source
Tyromyces palustris = assay: Rot jar test of glueline treated Pinus radiata plywood (AWPC 2007)
Method: (§3) Efficacy as a glueline fungicide was tested in plywood manufactured with phenol formaldehyde (PF), a typical resin used in engineered wood products. The wood type was Pinus radiata sapwood, which, like many softwoods, is rapidly degraded by decay organisms, if not protected. Five 3.2 mm rotary-peeled veneers were laid up with fungicide-containing PF resin at a typical commercial glue spread rate (250 g/m^2), cold pressed for 10 minutes then hot pressed for 12 minutes at 135° C. and […]. Test specimens (25 mm×25 mm×16 mm) were cut, then leached for 14 days according to EN 84 before conducting a three month “rot jar test” as specified by the Australasian Wood Preservation Committee (Laboratory Decay Test for Hazard Classes H3, H4 and H5, AWPC, 2007). Untreated controls contained no fungicide.
Plywood was manufactured following the procedure in Example 7 using triadimefon and triadimenol as the glueline fungicides and tested by the rot jar method after leaching. […]

[8] = system: Coniophora puteana (Brown rot); assay: Malt extract agar plate growth inhibition; type: cell-based; details: Example 6, 8 days growth
Method: as §1

[9] = system: Antrodia xantha (Brown rot); assay: Malt extract agar plate growth inhibition; type: cell-based
Method: as §1

[10] = 20° C.; cited from earlier work
Antrodia xantha = assay: Rot jar test of glueline treated Pinus radiata plywood (AWPC 2007); details: for Percentage weight loss: rot jar after leaching
Method: (§4) The end points used were EC90 or EC50, the concentration producing 90% or 50% inhibition of growth or weight loss resulting from fungal growth. EC values were calculated by regression analysis of dose response data using the GraphPad Prism software package (GraphPad Software, Inc., 5755 Oberlin Drive #110, San Diego, Calif. 92121, USA). EC90 values are expressed in ppm and EC50 values are expressed in gai/m^3.
as §3
(§5) Plywood was manufactured following the procedure in Example 7 using triadimefon and triadimenol as the glueline fungicides and tested by the rot jar method after leaching.
(§6) In order to examine the interaction between triadimefon and cyproconazole in the glueline a synergy trial was performed using plywood manufactured with fungicide-supplemented PF resin and the rot jar method described above. Six glueline rates (expressed as gai/m^3) of triadimefon alone, cyproconazole alone, triadimefon+cyproconazole (10:1) and triadimefon+cyproconazole (6:1) were used to establish EC50 values by regression analysis. Synergy was determined by the Wadley method as described above using the EC50 values.
(§7) Plywood 29 mm thick was manufactured from seven 4.3 mm rotary peeled Pinus radiata sapwood veneers using PF resin supplemented with various rates of triadimefon plus cyproconazole at a 10:1 ratio. […] The finished plywood was then sprayed with the same mixtures to cover the top and bottom faces of the plywood. Test specimens (25 mm×25 mm×29 mm) were cut, leached and tested by the rot jar method as described in Example 7.

[11] = system: Fomitopsis lilacino-gilva; assay: as above
Method: as §4, §3, §5, §6, §7

Serpula lacrymans = assay: as above; details: for Percentage weight loss: leached, three month rot jar
Method: as §4, §3
as §6, with “values. […]” for “values.”

Coniophora puteana = assay: as above; details: Example 10, glueline rate giving 50% inhibition of weight loss, regression
Method: as §4
Efficacy as a glueline fungicide was tested in plywood manufactured with phenol formaldehyde (PF), a typical resin used in engineered wood products. The wood type was Pinus radiata sapwood, which, like many softwoods, is rapidly degraded by decay organisms, if not protected. […]
as §6, with “values. […]” for “values.”

[12] = 20° C.; cited from earlier work; remark: listed apart in the source
[13] = system: Trametes versicolor (White rot); assay: Malt extract agar plate growth inhibition; type: cell-based; details: Example 4, 5 days at 25° C.
Method: as §4
(§8) Decay fungi were grown on malt extract agar plates for 5 days at 25° C. in the presence of triadimefon alone or triadimenol alone (A), cyproconazole alone (B), and the pairs of mixtures shown in Table 2.

[14] = system: Fomitopsis lilacino-gilva (Brown rot); assay: Malt extract agar plate growth inhibition; type: cell-based; details: Example 4, 5 days at 25° C.
Method: as §4, §8

Coriolus versicolor = details: cited from earlier work
Trichoderma viride = details: cited from earlier work
Decay fungi = assay: Malt extract agar plate growth test, statements over all decay fungi tested; type: cell-based; details: Example 4, EC90, Antrodia xantha, Fomitopsis lilacino-gilva, Trametes versicolor
Method: as §4, §8, §2

[15] = cited from earlier work; remark: listed apart in the source
[16] = system: human and yeast CYP51 (lanosterol-14α-demethylase); details: cited from earlier work
Chondrostereum purpureum = details: cited from earlier work
[17] = Example 7, glueline 62.5 gai/m3, PF plywood, leached, three month rot jar
[18] = Example 7, glueline 125 gai/m3, PF plywood, leached, three month rot jar
[19] = Example 7, glueline 250 gai/m3, PF plywood, leached, three month rot jar
[20] = Example 7, glueline 500 gai/m3, PF plywood, leached, three month rot jar
[21] = Example 8, glueline 250 gai/m3, PF plywood, rot jar after leaching
[22] = Example 8, glueline 500 gai/m3, PF plywood, rot jar after leaching
[23] = Example 8, glueline 1000 gai/m3, PF plywood, rot jar after leaching
[24] = Example 8, glueline 2000 gai/m3, PF plywood, rot jar after leaching
[25] = Example 8, glueline 250 gai/m3, PF plywood
[26] = Example 8, glueline 500 gai/m3, PF plywood
[27] = Example 8, glueline 1000 gai/m3, PF plywood
[28] = Example 8, glueline 2000 gai/m3, PF plywood
[29] = Example 9, glueline rate giving 50% inhibition of weight loss, six rates, regression

In the case of `CC(C)(C)C(=O)C(Oc1ccc(Cl)cc1)n1cncn1` (racemic) [Triadimefon], the “Kow (log P)” value [1] is given as 3.11, the “EC90(obs)” value ([2]; Example 5, 5 days growth) is given as 0.82 ppm and the “EC90(obs)” value ([2]; Example 6, 6 days growth) is given as 1.08 ppm. The “EC90(obs)” value ([3]; Example 5, 4 days growth) was 0.34 ppm, the “EC90(obs)” value ([3]; Example 6, 6 days growth) was 0.70 ppm and the “EC90(obs)” value [4] was 17.2 ppm. For the same compound, the “EC90(obs)” value ([5]; Example 5, 5 days growth) was 26.4 ppm, the “EC90(obs)” value ([5]; Example 6, 8 days growth) was 26.3 ppm and the “EC90(obs)” value [6] was 4.48 ppm. The “Stability, hydrolysis DT50” value ([7]; pH 4,7,9) was “DT50 >1 y pH 4,7,9”, the Percentage weight loss (Tyromyces palustris; [17]) was 28.7% and the Percentage weight loss (Tyromyces palustris; [18]) was 29.2%. It also gave a Percentage weight loss (Tyromyces palustris; [19]) of 16.5%, a Percentage weight loss (Tyromyces palustris; [20]) of 7.6% and a Percentage weight loss (Tyromyces palustris; [21]) of 14.2%. It also gave a Percentage weight loss (Tyromyces palustris; [22]) of 10.7%, a Percentage weight loss (Tyromyces palustris; [23]) of 2.0% and a Percentage weight loss (Tyromyces palustris; [24]) of 0.4%. The “EC90(obs)” value [8] was 27.4 ppm, the “EC90(obs)” value ([9]; Example 4, 5 days at 25° C.) was 2.56 ppm and the “EC90(obs)” value ([9]; Example 6, 8 days growth) was 2.52 ppm. For the same compound, the “Sol. Water” value [10] was 64 mg/L (20° C.), the Percentage weight loss (Antrodia xantha; [25]) was 29.4% and the Percentage weight loss (Antrodia xantha; [26]) was 20.3%. For the same compound, the Percentage weight loss (Antrodia xantha; [27]) was 12.5%, the Percentage weight loss (Antrodia xantha; [28]) was 6.1% and the “EC50(obs)” value (Antrodia xantha; [29]) was 248 gai/m^3. The Percentage weight loss [11, 17] was 17.8%, the Percentage weight loss [11, 18] was 16.7% and the Percentage weight loss [11, 19] was 10.3%. For the same compound, the Percentage weight loss [11, 20] was 8.2%, the Percentage weight loss [11, 21] was 19.1% and the Percentage weight loss [11, 22] was 13.8%. The Percentage weight loss [11, 23] was 5.1%, the Percentage weight loss [11, 24] was 3.6% and the “EC50(obs)” value [11, 29] was 121 gai/m^3. It also gave a Percentage weight loss (Serpula lacrymans; Example 7, glueline 62.5 gai/m3, PF plywood) of 42.4%, a Percentage weight loss (Serpula lacrymans; Example 7, glueline 125 gai/m3, PF plywood) of 43.8% and a Percentage weight loss (Serpula lacrymans; Example 7, glueline 250 gai/m3, PF plywood) of 42.2%. For the same compound, the Percentage weight loss (Serpula lacrymans; Example 7, glueline 500 gai/m3, PF plywood) was 44.9%, the “EC50(obs)” value (Serpula lacrymans; [29]) was 14328 gai/m^3 and the “EC50(obs)” value (Coniophora puteana) was 2591144 gai/m^3. For the same compound, the “Sol. DCM” value [12] was >200 g/L (20° C.), the Sol. hexane [12] was 6.3 g/L (20° C.) and the Sol. toluene [12] was >200 g/L (20° C.). The “EC90(obs)” value [13] was 1.52 ppm and the “EC90(obs)” value [14] was 1.48 ppm.

With `CC(C)(C)C(O)C(Oc1ccc(Cl)cc1)n1cncn1` (stereo not shown) [Triadimenol] the “EC90(obs)” value ([2]; Example 5, 5 days growth) was 0.84 ppm, the “EC90(obs)” value ([3]; Example 5, 4 days growth) was 0.10 ppm and the “EC90(obs)” value [4] was 1.80 ppm. The “EC90(obs)” value ([5]; Example 5, 5 days growth) was 42.8 ppm, the “EC90(obs)” value [6] was 1.26 ppm and the “sensitivity of the fungus (in words)” value (Coriolus versicolor) was “sensitive”. For the same compound, the “Stability, hydrolysis DT50” value ([7]; pH 4) was “DT50 >1 y pH 4,7,9”, the Percentage weight loss (Tyromyces palustris; [21]) was 9.6% and the Percentage weight loss (Tyromyces palustris; [22]) was 6.5%. The Percentage weight loss (Tyromyces palustris; [23]) was 0.9%, the Percentage weight loss (Tyromyces palustris; [24]) was 0.3% and the “EC90(obs)” value ([9]; Example 4, 5 days at 25° C.) was 1.12 ppm. The “sensitivity of the fungus (in words)” value (Trichoderma viride) was “insensitive”, the Percentage weight loss (Antrodia xantha; [25]) was 24.7% and the Percentage weight loss (Antrodia xantha; [26]) was 18.4%. It also gave a Percentage weight loss (Antrodia xantha; [27]) of 11.2%, a Percentage weight loss (Antrodia xantha; [28]) of 1.0% and a Percentage weight loss [11, 21] of 9.0%. It also gave a Percentage weight loss [11, 22] of 5.1%, a Percentage weight loss [11, 23] of 1.6% and a Percentage weight loss [11, 24] of 0.9%. The “efficacy acting alone relative to triadimefon acting alone” value (Decay fungi) was “two to ten times more efficacious”, the Henry ([15]; triadimenol form A) was 3 × 10^−6 P m^3 mo1^−1 and the Henry ([15]; triadimenol form B) was 4 × 10^−6 P m^3 mo1^−1. For the same compound, the “relative selectivity for the fungal enzyme (in words)” value ([16]; based on the IC50 ratio human/yeast) was “moderately selective”, the “ratio of IC50 values (human/yeast) against CYP51” value ([16]; human CYP51 IC50 / yeast (Candida albicans) CYP51 IC50) was 113 and the “EC90(obs)” value [13] was 0.15 ppm. For the same compound, the “EC90(obs)” value [14] was 0.37 ppm and the “sensitivity of the fungus (in words)” value (Chondrostereum purpureum) was “sensitive”.
